Measurements taken from US11344534B2, “Cholinergic agonism for the treatment of pancreatic cancer” (priority 2017, dated 2022).
Entries after “also recorded” stand apart in the source; their conditions may differ.

Columns and labels:
[1] = system: Organoid cultures derived from LSL-K-Ras^G12D pancreata not treated by an Adeno-Cre virus; format: cell-based; details: no Adeno-Cre virus (Kras not activated)
[2] = system: Kras^+/LSL-G12D mutant spheres; assay: 3D Matrigel sphere culture of Kras mutant (Ad-Cre) pancreatic acinar cells; format: cell-based, mouse; details: for number of spheres / size of spheres: day 5, pilocarpine 1 mM, scopolamine 10 μM, McN-34A 50 μM, pirenzepine 50 μM, vs controls; for sphere formation and growth of Kras mutant spheres: oncogenic K-Ras allele activated by adeno-Cre virus
Description: Cholinergic stimulation could in theory promote cancer indirectly through effects on stromal cells, or directly through effects on pancreatic epithelial cells. To determine whether cholinergic stimulation promoted tumor development in part through muscarinic receptors on cancer cells, the sphere forming capacity of K-Ras^+/LSL-G12D mutant pancreatic acinar cells was assessed in a 3D Matrigel culture system, with or without muscarinic stimulation. K-Ras^+/LSL-G12D mutant spheres were generated from K-Ras^+/LSL-G12D pancreatic acinar cells by treatment with adenoviral delivered Cre (Ad-Cre).
3D cultures were performed as described previously (Wescott et al., 2009). Organoids were cultured for 5 days before analysis. Adenoviral delivered Cre (Ad-Cre) was added to the cultures and medium was changed after 12 hours. […] Sphere size and […] were analyzed using ImageJ software.
To determine whether cholinergic stimulation suppresses tumor development in part through specific muscarinic receptors on cancer cells, the sphere forming capacity of Kras^+/LSL-G12D pancreatic acinar cells in a 3D Matrigel culture system in the absence and presence of muscarinic agonists and antagonists was assessed. Kras^+/LSL-G12D mutant spheres were generated from Kras^+/LSL-G12D mice by delivery of an adenoviral Cre (Ad-Cre).
3D cultures were performed as described previously^18. Organoids were cultured for 5 days before analysis. Adenoviral delivered Cre (Ad-Cre) was added to the cultures and medium was changed after 12 hours. […] Sphere size and number were analyzed using ImageJ software.

human Panc1 cells = assay: Western blot of EGFR/MAPK and PI3K/AKT signaling, Panc1; format: cell-based; details: for phosphorylation of EGFR, BRAF, ERK1/2, PI3K and AKT kinases (western blot): 72 hours; for ratios of p-EGFR/EGFR, p-BRAF/BRAF, p-ERK/ERK, p-PI3K/PI3K and p-AKT/AKT (densitometry): single agent alone
Description: (§1) To analyze EGFR and the MAPK and PI3K-Akt pathway in human and murine pancreatic cancer cell lines, cells were grown in 12-well plate to around ˜70% confluent, changed the 0.5% FBS medium, added the drugs respectively and incubated them for further 72 hrs incubation in a typical CO2 incubator (˜20% O2). After removing the medium, cells were washed twice with PBS, and protein extraction was performed on ice using RIPA buffer with protease inhibitor (Complete) (Roche) cocktail and phosphatase inhibitor (phosSTOP) (Roche). Protein samples were subsequently separated in 10% Bis-Tris Gel NuPAGE® electrophoresis using MES SDS Running Buffer (Invitrogen, CA, USA). After transfer to nitrocellulose, membranes were blocked with 5% BSA, and samples were probed with the following primary antibodies: p-EGFR (Cell Signaling), EGFR (Cell Signaling), p-BRAF (Cell Signaling), BRAF (Cell Signaling), p-ERK1/2 (phosphorylated p44/42 MAPK) (Thr202/Tyr204) (Cell Signaling), ERK1/2 (p44/42 MAPK) (Thr202/Tyr204) (Cell Signaling), p-PI3K (Cell Signaling), PI3K (Cell Signaling), p-Akt (Cell Signaling), Akt (Cell Signaling), and β-actin (Cell Signaling) followed by horseradish peroxidase-coupled secondary antibody. Immunoreactive bands were visualized using 5-bromo-4-chloro-3-indolyl phosphate/nitro blue tetrazolium and bands were quantified with ImageJ.
(§2) To analyze EGFR, MAPK and PI3K-AKT pathways in human and murine pancreatic cancer cell lines, cells were grown in 12-well culture plates to ˜70% confluency. The medium was then changed to 0.5% FBS medium, the respective drugs were added, and they were incubated for an additional 72 hours in a CO2 incubator (˜5% CO2). After removing the medium, cells were washed twice with PBS, and protein extraction was performed on ice using RIPA buffer with protease inhibitor (Complete, Roche) cocktail and a phosphatase inhibitor (phosSTOP, Roche). Protein samples were subsequently separated by 10% Bis-Tris Gel NuPAGE® electrophoresis using MES SDS Running Buffer (Invitrogen, CA, USA). After transfer to nitrocellulose, membranes were blocked with 5% BSA, and samples were probed with the following primary antibodies: p-EGFR (Cell Signaling), EGFR (Cell Signaling), p-BRAF (Cell Signaling), BRAF (Cell Signaling), p-ERK1/2 (phosphorylated p44/42 MAPK) (Thr202/Tyr204) (Cell Signaling), ERK1/2 (p44/42 MAPK) (Thr202/Tyr204) (Cell Signaling), p-PI3K (Cell Signaling), PI3K (Cell Signaling), p-AKT (Cell Signaling), AKT (Cell Signaling), and β-actin (Cell Signaling) followed by horseradish peroxidase-coupled secondary antibody. Immunoreactive bands were visualized using 5-bromo-4-chloro-3-indolyl phosphate/nitro blue tetrazolium and bands were quantified with ImageJ.

murine K8282 cells = assay: Western blot of EGFR/MAPK and PI3K/AKT signaling, K8282; format: cell-based, mouse; details: for phosphorylation of EGFR, BRAF, ERK1/2, PI3K and AKT kinases (western blot): 72 hours; for ratios of p-EGFR/EGFR, p-BRAF/BRAF, p-ERK/ERK, p-PI3K/PI3K and p-AKT/AKT (densitometry): single agent alone
Description: as §1, §2

[3] = system: human PDAC cell lines (MiaPaca2, Panc1); assay: MTT assay, human PDAC cell lines; format: cell-based; details: for proliferation (MTT assay): 72 hours, 0.5% FBS medium
Description: (§3) Cell proliferation in each cell line was assessed with a 3-(4,5-dimethylthiazol-2yl)-2,5-diphenyltetrazolium bromide (MTT) assay kit (Sigma) in accordance with the manufacturer's instructions. 3×10^3 cells were grown in 96-well plate to around ˜70% confluent, changed the 0.5% FBS medium, added the drugs respectively and incubated them for further 72 hrs incubation in a typical CO2 incubator (˜20% O2). Treated cells were rinsed twice with PBS, incubated in 10 ll MTT solution for 4 hr at 37° C., and 100 uL DMSO was added to each well. The absorbance of each well was measured at 570 nm using Tilter-Tech 96-well multiscanner (Becton Dickinson, Heidelberg, Germany). The relative number of viable cells compared with the number of cells without drug treatment was expressed as percent cell viability using the following formula:
(§4) Cell proliferation in each cell line was assessed with a 3-(4,5-dimethylthiazol-2yl)-2,5-diphenyltetrazolium bromide (MTT) assay kit (Sigma) in accordance with the manufacturer's instructions. 3×10^3 cells were grown in 96-well plate to ˜70% confluency, the media was changed to 0.5% FBS medium, the respective drugs were added, and they were incubated for an additional 72 hours in a CO2 incubator (˜5% CO2). Treated cells were rinsed twice with PBS, incubated in 10 ul MTT (5 mg/ml PBS) solution for 4 hours at 37° C., and 100 uL DMSO was then added to each well. The absorbance of each well was measured at 570 nm using a Tilter-Tech 96-well multiscanner (Becton Dickinson, Heidelberg, Germany). The relative number of viable cells compared with the number of cells without drug treatment was expressed as percent cell viability using the following formula: cell viability (%)=A570 of treated cells/A570 of untreated cells.

[4] = system: murine PDAC cell lines (Panc02, K8282); assay: MTT assay, murine PDAC cell lines; format: cell-based, mouse; details: for proliferation (MTT assay): 72 hours, 0.5% FBS medium
Description: as §3, §4

KPC mice = KPC mice with established PDAC treated with gemcitabine with or without bethanechol; format: in vivo, mouse; details: KPC mice
Text: Next, the role of cholinergic signaling in advanced pancreatic cancer was investigated using the genetically engineered KPC (K-Ras^+/LSL-G12D;p53^+/R172H;Pdx-1-Cre) mouse model, which develops ductal adenocarcinoma by 17-19 weeks (Olive et al., 2009, Hingorani et al., 2005).
K-Ras^+/LSL-G12D, p53^+/R172H, and Pdx-1-Cre mice were provided by Dr. Kenneth Olive (Columbia University). M1RKO mice were purchased from the Jackson Laboratory. KC mice and KPC mice were crossed with M1RKO mice. For several experiments, KC mice received pyloroplasty with or without vagotomy at 8 weeks and KC+VxPP mice were treated with or without bethanechol (400 μg/ml) after surgery immediately. They were sacrificed at 20 weeks. In addition, KPC mice were treated with gemcitabine biweekly and with or without bethanechol when the tumor size of 3-5 mm detected using ultrasound. They were sacrificed when the mice were moribund. For liver metastatic experiments, WT type C57/B6 mice received spleen injection and hemi-splenectomy. […] They were sacrificed when the mice were moribund.
Next, the role of cholinergic signaling in established PDAC was investigated using the KPC mouse model, which develops PDAC at a median age of 17-19 weeks^2, 29. KPC mice with pancreatic tumors that measured 3-5 mm in diameter on ultrasound were randomized to treatment with gemcitabine (GEM) alone, or GEM+bethanechol (FIG. 8I).
LSL-Kras^+/LSL-G12D, LSL-Trp53^+/R172H, and Pdx1-Cre mice were bred by Dr. Kenneth P. Olive and co-workers. Chrm1KO mice (C57BL/6-Chrm1tm1 Stl/J, (M1RKO) mice^1 were purchased from the Jackson Laboratory. KC mice and KPC mice were crossed with M1RKO mice. In the vagotomy experiments, KC mice received pyloroplasty with or without vagotomy at 8 weeks, and some KC+VxPP mice were treated with bethanechol ([…] in drinking water) immediately after surgery and then sacrificed at 20 weeks. KPC mice in treatment studies were palpated weekly for tumors in the pancreas. Once a tumor was suspected, KPC mice were screened by VEVO 2100—Ultrasound Imaging System (FUJIFILM VisualSonics) for pancreatic cancer. KPC mice were treated with gemcitabine, given by i.p. injection 100 mg/kg biweekly, with or without bethanechol, when a tumor size of 3-5 mm was detected using ultrasound. Mice were sacrificed when the mice were moribund. NOD/SCID mice were implanted with Panc1 cells subcutaneously and sacrificed at 30 days after implantation. For liver metastatic experiments, WT type C57/B6 mice received a splenic injection of labeled Panc02 cells, followed by hemi-splenectomy. The mice were then divided into three groups. […] Mice were then sacrificed when moribund. At necropsy, hepatic metastases that could clearly be identified as tumor nodules on gross inspection were separated. All animal studies and procedures were approved by the IACUC committee at Columbia University. All mice were bred under specific pathogen free conditions. Comparisons were made with age- and sex-matched control animals.
CD44, p-EGFR, p-PI3K, p-ERK, and Ki67 positive cells were quantified in at least five high power fields from at least 3 mice per group. Total cells per field were counted via morphometric analysis using ImageJ and the ratio of positive cells to total cell number calculated.

CHRM1 [5] = assay: qRT-PCR of muscarinic receptor expression, human PDAC cell lines; format: cell-based; details: human PDAC cell lines (MiaPaca2 and Panc1), compared to control
Chrm1 [6] = assay: qRT-PCR of muscarinic receptor expression, murine PDAC cell lines; format: cell-based, mouse; details: murine PDAC cell lines (Panc02 and K8282), compared to control

| Structure (SMILES) | sphere forming capacity / growth of WT spheres [1] | number of spheres [2] | size of spheres [2] | sphere formation and growth of Kras mutant spheres [2] | phosphorylation of EGFR, BRAF, ERK1/2, PI3K and AKT kinases (western blot) (human Panc1 cells) | ratios of p-EGFR/EGFR, p-BRAF/BRAF, p-ERK/ERK, p-PI3K/PI3K and p-AKT/AKT (densitometry) (human Panc1 cells) | phosphorylation of EGFR, BRAF, ERK1/2, PI3K and AKT kinases (western blot) (murine K8282 cells) | ratios of p-EGFR/EGFR, p-BRAF/BRAF, p-ERK/ERK, p-PI3K/PI3K and p-AKT/AKT (densitometry) (murine K8282 cells) | proliferation (MTT assay) [3] | increase in proliferation due to muscarinic antagonists ([3]; agonist added to antagonist) | proliferation (MTT assay) [4] | increase in proliferation due to muscarinic antagonists ([4]; agonist added to antagonist) | overall survival (KPC mice; GEM with or without bethanechol) [days] | overall survival (KPC mice; tumors 3-5 mm at enrollment, GEM biweekly i.p. with or without bethanechol) [days] | Chrm1 expression (CHRM1 [5]) | Chrm1 expression (Chrm1 [6]) |
| --- | --- | --- | --- | --- | --- | --- | --- | --- | --- | --- | --- | --- | --- | --- | --- | --- |
| C[N+](C)(C)CC#CCOC(=O)Nc1cccc(Cl)c1.[Cl-] [McN-34A] | increased | significantly fewer | smaller | suppressed | significantly less phosphorylated | significantly decreased | significantly less phosphorylated | significantly decreased | suppressed | blocked; also recorded: inhibited to some extent | suppressed | blocked; also recorded: inhibited to some extent | – | – | – | – |
| CN1CCN(CC(=O)N2c3ccccc3C(=O)Nc3cccnc32)CC1 [pirenzepine] | significantly prevents | significantly more | larger | stimulated | significantly more phosphorylated | increased | significantly more phosphorylated | increased | increased; also recorded: stimulated | – | increased; also recorded: stimulated | – | – | – | – | – |
| Nc1ccn([C@@H]2O[C@H](CO)[C@@H](O)C2(F)F)c(=O)n1 [GEM] | – | – | – | – | – | – | – | – | – | – | – | – | 29 | 29 | – | – |
| CN1[C@@H]2C[C@@H](OC(=O)[C@H](CO)c3ccccc3)C[C@H]1[C@@H]1O[C@@H]12 [scopolamine] | – | significantly more; also recorded: increased | larger | increase | significantly more phosphorylated | – | significantly more phosphorylated | – | increased; also recorded: stimulated | – | increased | – | – | – | increased; also recorded: higher | increased; also recorded: higher |
